Data on 34 molecules can be found in patent publication US6043357A, “HIV protease inhibitors” (The University of Queensland, priority 1994, dated 2000).

The assay deals with HIV-1 protease (Human immunodeficiency virus type 1 group M subtype B, UniProt P03369). The assay is described as follows: biochemical. On the procedure: HIV-1 protease activity was measured at 37° C. using a continuous fluorimetric assay based on the method of Toth et al., (Toth et al., 1990, Int. J. Pept. Res. 36 544-550). The substrate, 2-aminobenzoyl-threonine-isoleucine-norleucine-(p-nitro)-phenylalanine-glutamine-arginine-NH2 (Abz-NF^* -6), was synthesised by solid phase peptide synthesis (Kent et al., 1991, In: Peptides 1990: Proceedings of the Twenty-First European Peptide Symposium (Girault, E. and Andrew, D. eds.) pp 172-173, ESCOM, Leiden). Enzyme activity was measured as the increase in fluorescence intensity upon substrate hydrolysis. The change in fluorescence intensity was monitored with a Perkin Elmer LS50B luminescence spectrometer fitted with a thermostatted micro cuvette holder. Measurements were carried out using an excitation wavelength of 320 nm (bandwith 5 nm) and an emission wavelength of […] (bandwith 5 nm).
Inhibition assays were routinely carried out at pH 6.5 and μ=0.1 M using a single substrate concentration. The assay mixtures contained 50 μM Abz-NF^* -6 in 100 mM 2-(N-morpholino)ethanesulphonate buffer, containing 10% (v/v) glycerol and 50 μg/ml bovine serum albumin, in a total final volume of 400 μl. Where inhibitors had to be dissolved in dimethyl sulphoxide or other organic solvents, the final concentration of solvent in the control and inhibition assays were kept absolutely constant because of the severe inhibitory effect of some solvents on the enzyme activity (Bergman et al., 1992, 17th Ann. Lorne Conf. on Protein Struct. and Funct. Abstr.). In all assays, the reaction was initiated by the addition of 10 μl of enzyme solution.

Setting [1] is: Table 1, pH 6.5, 37° C., read-out: IC50.
[2] abbreviates: Table 2, pH 6.5, 37° C., read-out: IC50.
[3] abbreviates: Table 4, rac (R and S isomer together), read-out: IC50.

Read-outs that look alike come from different tables or passages of the source.

`CC[C@H](C)[C@H](NC(=O)[C@@H]1CCCN1C[C@@H](O)[C@@H]1Cc2ccc(cc2)OCCCC(=O)N[C@@H](CC(N)=O)C(=O)N1)C(=O)N[C@H](C(N)=O)C(C)C` [Compound 2]: inhibition was half-maximal at 1580 nM (IC50). For the molecule `CC[C@H](C)[C@H](NC(=O)[C@@H]1CCCN1C[C@H](O)[C@@H]1Cc2ccc(cc2)OCCCC(=O)N[C@@H](CC(N)=O)C(=O)N1)C(=O)N[C@H](C(N)=O)C(C)C` [Compound 3, [2(S),11'(S),8'(S)]-2-[11'-[6',9'-dioxo-8'-(ethanamide)-2'-oxa-7',10'-diazabicyclo[11.2.2]heptadeca-13',15',16'-triene]]-1-(N-(S)-prolyl-(S)-isoleucyl-(S)-valine amide)ethan-2-ol], the IC50 worked out at 39 nM and the “protease inhibition, stated in words” value is reported as “successfully functionally mimicked compound 1”. Consider `CC[C@H](C)[C@H](NC(=O)[C@@H]1CCCN1C[C@@H](O)[C@@H]1Cc2ccc(cc2)OCCCC(=O)N[C@@H](CC(N)=O)C(=O)N1)C(N)=O` [Compound 4], for which the IC50 (read-out: IC50) came to 9500 nM. Turning to `CC[C@H](C)[C@H](NC(=O)[C@@H]1CCCN1C[C@H](O)[C@@H]1Cc2ccc(cc2)OCCCC(=O)N[C@@H](CC(N)=O)C(=O)N1)C(N)=O` [Compound 5], the “protease inhibition, stated in words” value is on record as “reduced potency”. Further, the IC50 (read-out: IC50) stood at 850 nM.

As to `NC(=O)C[C@@H]1NC(=O)CCCOc2ccc(cc2)C[C@@H]([C@H](O)CN2CCC[C@H]2C(N)=O)NC1=O` [Compound 6], the IC50 under setting [1] turned out to be 55000 nM. Take `NC(=O)C[C@@H]1NC(=O)CCCOc2ccc(cc2)C[C@@H]([C@@H](O)CN2CCC[C@H]2C(N)=O)NC1=O` [Compound 7]: the “protease inhibition, stated in words” value is listed as “reduced potency”. Under setting [1], the IC50 came out at 120000 nM. Consider `CC[C@H](C)[C@H](NC(=O)[C@@H]1CCCN1C[C@@H](O)[C@@H]1Cc2ccc(cc2)OCCNCC(=O)N[C@@H](CC(N)=O)C(=O)N1)C(=O)N[C@H](C(N)=O)C(C)C` [Compound 8], for which the IC50 under setting [1] was 700 nM. In the case of `CC[C@H](C)[C@H](NC(=O)[C@@H]1CCCN1C[C@H](O)[C@@H]1Cc2ccc(cc2)OCCNCC(=O)N[C@@H](CC(N)=O)C(=O)N1)C(=O)N[C@H](C(N)=O)C(C)C` [Compound 9], the IC50 under setting [1] worked out at 37 nM. `CC[C@H](C)[C@H](NC(=O)[C@@H]1CCCN1C[C@@H](O)[C@@H]1Cc2ccc(cc2)OCC(O)C(O)C(=O)N[C@@H](CC(N)=O)C(=O)N1)C(=O)N[C@H](C(N)=O)C(C)C` (stereo partly shown) [Compound 10]: the “protease inhibition, stated in words” value is on record as “no improvement was observed in potency compared to 3 or 9”. Moreover, under setting [1], the IC50 came to 600 nM.

For the molecule `CC[C@H](C)[C@H](NC(=O)[C@@H]1CCCN1C[C@H](O)[C@@H]1Cc2ccc(cc2)OCC(O)C(O)C(=O)N[C@@H](CC(N)=O)C(=O)N1)C(=O)N[C@H](C(N)=O)C(C)C` (stereo partly shown) [Compound 11], the “protease inhibition, stated in words” value was “no improvement was observed in potency compared to 3 or 9”. For the same molecule, under setting [1], the IC50 worked out at 49 nM.

Consider `CC[C@H](C)[C@H](NC(=O)[C@@H]1CCCN1C[C@@H](O)[C@@H]1Cc2ccc(cc2)OCCCCC(=O)N[C@@H](CC(N)=O)C(=O)N1)C(=O)N[C@H](C(N)=O)C(C)C` [Compound 12], for which, under setting [2], the IC50 was determined as 165 nM. In the case of `CC[C@H](C)[C@H](NC(=O)[C@@H]1CCCN1C[C@H](O)[C@@H]1Cc2ccc(cc2)OCCCCC(=O)N[C@@H](CC(N)=O)C(=O)N1)C(=O)N[C@H](C(N)=O)C(C)C` [Compound 13], the “protease inhibition, stated in words” value is given as “no dramatic increase in potency”. Moreover, under setting [2], the IC50 is 26 nM. Taken in the same sequence, the figures for `CCOC(=O)CCCOc1ccc(C[C@H](NC(=O)[C@H](CC(N)=O)NC(C)=O)[C@H](O)CN2CCC[C@H]2C(=O)N[C@H](C(=O)N[C@H](C(N)=O)C(C)C)[C@@H](C)CC)cc1` [Compound 14] were “slightly reduced potency” and 350 nM. Taken in the same sequence, the figures for `CCOC(=O)CCCOc1ccc(C[C@H](NC(=O)[C@H](CC(N)=O)NC(C)=O)[C@@H](O)CN2CCC[C@H]2C(=O)N[C@H](C(=O)N[C@H](C(N)=O)C(C)C)[C@@H](C)CC)cc1` [Compound 15] were “slightly reduced potency” and 45 nM. Take `CC[C@H](C)[C@H](NC(=O)[C@@H]1CCCN1C[C@@H](O)[C@@H]1CSSCC(NC(C)=O)C(=O)NCC(=O)N[C@@H](CC(N)=O)C(=O)N1)C(=O)N[C@H](C(N)=O)C(C)C` (stereo partly shown) [Compound 16]: the “protease inhibition, stated in words” value is on record as “activity was instead reduced”. For the same molecule, under setting [2], the IC50 came out at 122000 nM. `CC[C@H](C)[C@H](NC(=O)[C@@H]1CCCN1C[C@H](O)[C@@H]1CSSCC(NC(C)=O)C(=O)NCC(=O)N[C@@H](CC(N)=O)C(=O)N1)C(=O)N[C@H](C(N)=O)C(C)C` (stereo partly shown) [Compound 17]: the “protease inhibition, stated in words” value is given as “activity was instead reduced”. In addition, under setting [2], the IC50 came to 28000 nM. On to `CC[C@H](C)[C@H](NC(=O)[C@@H]1CCCN1C[C@H](O)[C@@H]1Cc2ccc(cc2)OCC(=O)N[C@@H](Cc2ccc(O)cc2)C(=O)N[C@@H](CC(N)=O)C(=O)N1)C(=O)N[C@H](C(N)=O)C(C)C` [Compound 18], for which the IC50 turned out to be 38 nM. On the same count and under the same terms, for `CC[C@H](C)[C@H](NC(=O)[C@@H]1CCCN1C[C@@H](O)[C@@H]1Cc2ccc(cc2)OCC(=O)N[C@@H](Cc2ccc(O)cc2)C(=O)N[C@@H](CC(N)=O)C(=O)N1)C(=O)N[C@H](C(N)=O)C(C)C` [Compound 19] the value was 165 nM. Molecule `CC[C@H](C)[C@H](NC(=O)[C@@H]1CCCN1C[C@H](O)[C@@H]1Cc2ccc(cc2)OCC(=O)N[C@@H](Cc2cnc[nH]2)C(=O)N[C@@H](CC(N)=O)C(=O)N1)C(=O)N[C@H](C(N)=O)C(C)C` [Compound 20] yielded an IC50 (pH 6.5) of 26 nM. `CC[C@H](C)[C@H](NC(=O)[C@@H]1CCCN1C[C@@H](O)[C@@H]1Cc2ccc(cc2)OCC(=O)N[C@@H](Cc2cnc[nH]2)C(=O)N[C@@H](CC(N)=O)C(=O)N1)C(=O)N[C@H](C(N)=O)C(C)C` [Compound 21] had an IC50 (pH 6.5) of 339 nM.

Consider `CC[C@H](C)[C@H](NC(=O)[C@@H]1CCCN1C[C@H](O)[C@@H]1Cc2ccc(cc2)OCC(=O)N[C@@H](CCCNC(=N)N)C(=O)N[C@@H](CC(N)=O)C(=O)N1)C(=O)N[C@H](C(N)=O)C(C)C` [Compound 22], for which inhibition (pH 6.5) was half-maximal at 42 nM (IC50). `CC[C@H](C)[C@H](NC(=O)[C@@H]1CCCN1C[C@@H](O)[C@@H]1Cc2ccc(cc2)OCC(=O)N[C@@H](CCCNC(=N)N)C(=O)N[C@@H](CC(N)=O)C(=O)N1)C(=O)N[C@H](C(N)=O)C(C)C` [Compound 23]: the IC50 (pH 6.5) came to 49 nM. Molecule `CC[C@H](C)[C@H](NC(=O)[C@@H]1CCCN1C[C@@H](O)[C@@H]1Cc2ccc(cc2)OCC(=O)N[C@H](CCC(N)=O)C(=O)N[C@@H](CC(N)=O)C(=O)N1)C(=O)N[C@H](C(N)=O)C(C)C` [Compound 24] returned a half-inhibitory concentration (IC50) of 40 nM. Regarding `CC[C@H](C)[C@H](NC(=O)[C@@H]1CCCN1C[C@H](O)[C@@H]1Cc2ccc(cc2)OCC(=O)N[C@H](CCC(N)=O)C(=O)N[C@@H](CC(N)=O)C(=O)N1)C(=O)N[C@H](C(N)=O)C(C)C` [Compound 25], the IC50 stood at 40 nM.

Turning to `CC(C)CN(CC(=O)NC(C)(C)C)C[C@@H](O)[C@@H]1Cc2ccc(cc2)OCCCC(=O)N[C@@H](CC(N)=O)C(=O)N1` [Compound 26], the “protease inhibition, stated in words” value is recorded as “only μM instead of nM”. Also, under “read-out: IC50”, the half-maximal inhibitory concentration (IC50) came to 1700 nM. For `CC(C)CN(CC(=O)NC(C)(C)C)C[C@H](O)[C@@H]1Cc2ccc(cc2)OCCCC(=O)N[C@@H](CC(N)=O)C(=O)N1` [Compound 27], the “protease inhibition, stated in words” value is listed as “only μM instead of nM”. For the same molecule, the IC50 (read-out: IC50) was determined as 1900 nM.

With `CC(C)(C)NC(=O)CN(Cc1ccccc1)C[C@@H](O)[C@@H]1Cc2ccc(cc2)OCCCC(=O)N[C@@H](CC(N)=O)C(=O)N1` [Compound 28], the IC50 was 1500 nM. Molecule `CC(C)(C)NC(=O)CN(Cc1ccccc1)C[C@H](O)[C@@H]1Cc2ccc(cc2)OCCCC(=O)N[C@@H](CC(N)=O)C(=O)N1` [Compound 29] registered an IC50 of 46000 nM. On to `CC(C)(C)NC(=O)C(Cc1ccccc1)NC[C@@H](O)[C@@H]1Cc2ccc(cc2)OCCCC(=O)N[C@@H](CC(N)=O)C(=O)N1` (stereo partly shown) [Compound 30], for which the IC50 under setting [3] is 70000 nM. The same measure, in the same setting: for `CC(C)(C)NC(=O)C(Cc1ccccc1)NC[C@H](O)[C@@H]1Cc2ccc(cc2)OCCCC(=O)N[C@@H](CC(N)=O)C(=O)N1` (stereo partly shown) [Compound 31] the value was 70000 nM; for `CC(C)NC(=O)C(Cc1ccccc1)NC[C@@H](O)[C@@H]1Cc2ccc(cc2)OCCCC(=O)N[C@@H](CC(N)=O)C(=O)N1` (stereo partly shown) [Compound 32], 42000 nM; for `CC(C)NC(=O)C(Cc1ccccc1)NC[C@H](O)[C@@H]1Cc2ccc(cc2)OCCCC(=O)N[C@@H](CC(N)=O)C(=O)N1` (stereo partly shown) [Compound 33], 42000 nM.

In the case of `CC(C)CNC(=O)C(Cc1ccccc1)NC[C@@H](O)[C@@H]1Cc2ccc(cc2)OCCCC(=O)N[C@@H](CC(N)=O)C(=O)N1` (stereo partly shown) [Compound 34], the IC50 is 5200 nM. For the molecule `CC(C)CNC(=O)C(Cc1ccccc1)NC[C@H](O)[C@@H]1Cc2ccc(cc2)OCCCC(=O)N[C@@H](CC(N)=O)C(=O)N1` (stereo partly shown) [Compound 35], the half-inhibitory concentration (IC50) was found to be 5200 nM.

Broadly, the IC50 is the concentration that gives 50% inhibition.
